# Measured values: PubChem BioAssay (NCI)
#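 How tested: cells in 96-well plates exposed to compound for 48 hours at five concentrations. TGI is the concentration that stops growth completely.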
# Experiments:
# Test in all cases: NCI-60 cell line screen, 48 h
# [1] = test system: UO-31 renal
# [2] = test system: NCI-H460 lung
# [3] = test system: EKVX NSCLC
# [4] = test system: M14 melanoma
# [5] = test system: SR leukemia
# [6] = test system: HOP-62 NSCLC
# [7] = test system: HCC-2998 colon
# [8] = test system: T-47D breast
# [9] = test system: PC-3 prostate
# [10] = test system: SF-268 CNS
# [11] = test system: CCRF-CEM leukemia
# [12] = test system: UACC-257 melanoma
# [13] = test system: CAKI-1 renal
# [14] = test system: RPMI-8226 leukemia
# [15] = test system: MDA-MB-435
# [16] = test system: SK-MEL-5 melanoma
# [17] = test system: TK-10 renal
# [18] = test system: OVCAR-4 ovarian
# [19] = test system: NCI/ADR-RES ovarian
# [20] = test system: MOLT-4 leukemia
# [21] = test system: COLO 205 colon
# [22] = test system: SK-MEL-28 melanoma
# [23] = test system: UACC-62 melanoma
# [24] = test system: HL-60(TB) leukemia
# [25] = test system: SNB-19 CNS
# [26] = test system: SW-620 colon
# [27] = test system: OVCAR-8 ovarian
# [28] = test system: MALME-3M melanoma
# [29] = test system: SF-295 CNS
# [30] = test system: A549 NSCLC
# [31] = test system: NCI-H23 lung
# [32] = test system: SN12C renal
# [33] = test system: NCI-H522 lung
# [34] = test system: HOP-92 NSCLC
# [35] = test system: DU-145 prostate
# [36] = test system: K-562 leukemia
# [37] = test system: SNB-75 CNS
# [38] = test system: KM12 colon
# [39] = test system: 786-0 renal
# [40] = test system: MDA-N
# [41] = test system: OVCAR-5 ovarian
# [42] = test system: SK-OV-3 ovarian
# [43] = test system: NCI-H226 lung
# [44] = test system: SF-539 CNS
# [45] = test system: ACHN renal
# [46] = test system: RXF 393 renal
# [47] = test system: HS 578T breast
# [48] = test system: HT29 colon
# [49] = test system: MDA-MB-231 breast
# [50] = test system: LOX IMVI melanoma
# [51] = test system: OVCAR-3 ovarian
# [52] = test system: HCT-116 colon
# [53] = test system: IGROV1 ovarian
# [54] = test system: A498 renal
# [55] = test system: SK-MEL-2 melanoma
# [56] = test system: U251 CNS
# [57] = test system: HCT-15 colon
smiles,measurement,setting,value
CCN(CC)C(=O)c1cc([N+](=O)[O-])c(=O)n2c1[nH]c1ccccc12,TGI,[1],> 100 µM
same,TGI,[2],> 100 µM
same,TGI,[3],> 100 µM
same,TGI,[4],> 100 µM
same,TGI,[5],> 100 µM
same,TGI,[6],> 100 µM
same,TGI,[7],> 100 µM
same,TGI,[8],> 100 µM
same,TGI,[9],> 100 µM
same,TGI,[10],> 100 µM
same,TGI,[11],> 100 µM
same,TGI,[12],> 100 µM
same,TGI,[13],> 100 µM
same,TGI,[14],> 100 µM
same,TGI,[15],> 100 µM
same,TGI,[16],> 100 µM
same,TGI,[17],> 100 µM
same,TGI,[18],> 100 µM
same,TGI,[19],> 100 µM
same,TGI,[20],> 100 µM
same,TGI,[21],> 100 µM
same,TGI,[22],> 100 µM
same,TGI,[23],> 100 µM
same,TGI,[24],> 100 µM
same,TGI,[25],> 100 µM
same,TGI,[26],> 100 µM
same,TGI,[27],> 100 µM
same,TGI,[28],> 100 µM
same,TGI,[29],> 100 µM
same,TGI,[30],> 100 µM
same,TGI,[31],> 100 µM
same,TGI,[32],> 100 µM
same,TGI,[33],> 100 µM
same,TGI,[34],> 100 µM
same,TGI,[35],> 100 µM
same,TGI,[36],> 100 µM
same,TGI,[37],> 100 µM
same,TGI,[38],> 100 µM
same,TGI,[39],> 100 µM
same,TGI,[40],> 100 µM
same,TGI,[41],> 100 µM
same,TGI,[42],> 100 µM
same,TGI,[43],> 100 µM
same,TGI,[44],> 100 µM
same,TGI,[45],> 100 µM
same,TGI,[46],> 100 µM
same,TGI,[47],> 100 µM
same,TGI,[48],> 100 µM
same,TGI,[49],> 100 µM
same,TGI,[50],> 100 µM
same,TGI,[51],> 100 µM
same,TGI,[52],> 100 µM
same,TGI,[53],> 100 µM
Cc1ccc2c(c1)Nc1ccccc1P2(=O)O,TGI,[1],> 100 µM
same,TGI,[2],> 100 µM
same,TGI,[54],> 100 µM
same,TGI,[3],> 100 µM
same,TGI,[4],> 100 µM
same,TGI,[5],> 100 µM
same,TGI,[6],> 100 µM
same,TGI,[7],> 100 µM
same,TGI,[8],> 100 µM
same,TGI,[9],> 100 µM
same,TGI,[10],> 100 µM
same,TGI,[11],> 100 µM
same,TGI,[12],> 100 µM
same,TGI,[13],> 100 µM
same,TGI,[15],> 100 µM
same,TGI,[16],> 100 µM
same,TGI,[17],> 100 µM
same,TGI,[18],> 100 µM
same,TGI,[19],> 100 µM
same,TGI,[20],> 100 µM
same,TGI,[21],> 100 µM
same,TGI,[22],> 100 µM
same,TGI,[23],> 100 µM
same,TGI,[24],> 100 µM
same,TGI,[25],> 100 µM
same,TGI,[26],> 100 µM
same,TGI,[27],> 100 µM
same,TGI,[28],> 100 µM
same,TGI,[29],> 100 µM
same,TGI,[30],> 100 µM
same,TGI,[31],> 100 µM
same,TGI,[32],> 100 µM
same,TGI,[33],> 100 µM
same,TGI,[34],> 100 µM
same,TGI,[55],> 100 µM
same,TGI,[35],> 100 µM
same,TGI,[36],> 100 µM
same,TGI,[37],97.7 µM
same,TGI,[38],> 100 µM
same,TGI,[39],> 100 µM
same,TGI,[40],> 100 µM
same,TGI,[41],> 100 µM
same,TGI,[42],> 100 µM
same,TGI,[43],> 100 µM
same,TGI,[44],> 100 µM
same,TGI,[45],> 100 µM
same,TGI,[46],> 100 µM
same,TGI,[48],> 100 µM
same,TGI,[49],> 100 µM
same,TGI,[56],> 100 µM
same,TGI,[50],> 100 µM
same,TGI,[51],> 100 µM
same,TGI,[52],> 100 µM
same,TGI,[57],> 100 µM
same,TGI,[53],> 100 µM
